Measurements published in patent publication US20230202997A1, “CHROMANOL, QUINONE OR HYDROQUINONE COMPOUNDS FOR TREATMENT OF SEPSIS” (Sulfateq B.V., priority 2020, published 2023).

Legend:
[1] = test system: mitochondrial oxidative stress in HUVEC; test: LPS-induced mitochondrial superoxide in HUVEC (MitoSox); assay type: cell-based, Human; conditions: 10 μM for 30 min, LPS 100 ng/ml 24 hours
Method: (§1) Human Umbilical Cord Endothelial Cells (HUVEC, Lonza CC-2519) were maintained on 1% gelatin-coated culture flasks in RPMI1640 medium containing 20% fetal bovine serum, 2 mM Glutamine (Sigma-Aldrich), 1% Penicillin-Streptomycin solution (Sigma-Aldrich) and 50 μg/ml Bovine Pituitary Extract (Invitrogen). HUVEC were passaged by trypsinization when the cultures reach a confluency of 70%. For all experiments, HUVEC were seeded at 0.6·10^5 cells/cm^2 and allowed to adhere for 24 hours.
The production of cellular and mitochondrial oxidative stress was measured using fluorescent probes for cellular and mitochondrial superoxide, i.e. dihydroethidium (DHE) and MitoSox (ThermoFisher), respectively. HUVEC were incubated with BN-80933, SUL-138 or SUL-150 (all 10 μM) for 30 min. Next, HUVEC were exposed to LPS (100 ng/ml) for an additional 24 hours. In the final hour of incubation, 2.5 μM of DHE or MitoSox was applied to each sample. HUVEC were washed in PBS and fixed in 4% paraformaldehyde at room temperature for 15 min. Nuclear staining was performed by 5 μM […] (DAPI) and fluorescence intensity of the samples was recorded in a CLARIOStar Plus plate reader (BMG Labtech) equipped with the appropriate filter sets. Fluorescence recordings for DHE and MitoSox were corrected for DAPI fluorescence. All experiments were performed in quadruplicate.

[2] = test system: IL-6 mRNA expression; test: Inhibition of LPS-induced IL-6 mRNA expression in HUVEC; assay type: cell-based, Human; conditions: 10 μM for 30 min, then LPS 24 hours
Method: as §1
HUVEC and NRK52E cells were pre-incubated with SUL compounds (10 μM) for 30 min and subsequently exposed to LPS for 24 hours under standard culture conditions. Cells were lysed in triZOL reagens (Invitrogen) and total RNA isolated according to manufacturers' instruction. 1 μg total RNA per sample was reverse transcribed using the FirstAid Reverse Transcription Kit (ThermoFisher). Copy-DNA equivalents of 5 ng total RNA were amplified on a ViiA7 Real-time PCR system (ThermoFisher, Waltham, Mass.) using iTaq Universal SYBR Green Supermix (Bio-Rad, Hercules, Calif.) and primers specific for tumor necrosis factor alpha, interleukin 1 beta, interleukin-6 and beta actin as loading control. Amplification was performed for 40 cycles of 95° C. for 30 s, 60° C. for 1 min. Relative mRNA expression was calculated as 2^−(Cq^gene^−Cq^reference^) and normalized to unstimulated control cells (100% inhibition) and vehicle-treated and LPS exposed cells (0% inhibition). The following primers were used: […]

[3] = test system: NO production in RAW264.7 macrophages; test: Macrophage NO production (nitrate in conditioned medium), basal and after LPS; assay type: cell-based, Mouse
Method: Mouse macrophage RAW264.7 cells (ATCC #TIB-71) were maintained in DMEM medium containing 10% fetal bovine serum, and 1% Penicillin-Streptomycin solution (Sigma-Aldrich). […] For all experiments, RAW264.7 cells were seeded at 0.5·10^5 cells/cm^2 and allowed to adhere for 24 hours. Cellular production of NO was approximated by measuring nitrate concentrations in culture media using the Measure-IT™ High-Sensitivity Nitrite Assay Kit (#M36051, ThermoFisher) according to manufacturer's instructions. […] Therefore, nitrate concentrations in conditioned media are a good approximate to assess cellular NO production. 50 μl conditioned medium derived from a single 96-wells plate well was used per assay and normalized against protein concentration. All experiments were performed in quadruplicate. LPS induces macrophage NO production by activating iNOS. RAW264.7 macrophages were pre-treated with vehicle (DMSO), BN-80933, SUL-138, or SUL-150 or (all 10 μM) prior to endotoxin (LPS 100 ng/ml) exposure for 24 hours. The nitrate levels in the conditioned medium from LPS exposed RAW264.7 macrophages averaged at 83 pmol/mg protein (˜16-fold increase versus non-exposed RAW264.7 cells, p=0.001).

[4] = test system: expression of IL-6, TNF-α, IL-1β and ICAM in the kidney; test: CLP sepsis model, kidney RNA expression by qRT-PCR; assay type: in vivo; conditions: CLP mice; SUL-138 5 mg/kg s.c.; 24 hours
Method: To induce sepsis, the standard cecal ligation and puncture (CLP) model was used. Animals were anesthetized by subcutaneous injection of xylazine/ketamine (100/10 mg/kg), followed by administration of buprenorphine (0.1 mg/kg) as analgesic. After confirmation of anesthesia by lack of response to paw pinch and eye reflex, the abdomen was shaved, cleaned, and de-germed using a povidone-iodine solution before a 1-cm midline incision was made. The cecum was ligated with a 6-0 suture at half the distance between distal pole and the base of the cecum and punctured once with a 21-Gauge needle (‘through-and-through’ from mesenteric toward anti-mesenteric direction) which is an accepted model for ‘mid-grade’ sepsis. A small amount of stool (2-3 mm) was then extruded to ensure wound patency. The cecum was repositioned, thereby taking care not to spill fecal material on the wound edges, followed by closure of the abdomen by running sutures to the abdominal musculature and short interrupted sutures to the skin. Next, 1 ml of saline (warmed, 0.9% NaCl s.c.) was administered to compensate for the expected relative volume depletion due to the onset of sepsis.
Mice in the SUL-138 treated groups were injection with SUL-138 (dissolved in saline, 5 mg/kg, s.c.) at 2 hours before and 8 hours after surgery, while mice in the other groups were injected with an equal volume of saline at these time-points.
In order to assess the expression of proinflammatory cytokines and adhesion molecules in the kidney, including IL-6, TNF-α, IL-1β and ICAM, RNA was isolated from approximately 30 mg kidney tissue using Nucleospin RNA (Machery-Nagel, Duren, Germany), quantified using nanodrop spectrophotometer ND-1000 and converted into copy DNA (cDNA), using 0.5 μg RNA in each sample. For RNA isolation from cells, the same kit was used with slight adaptations: TRIzol and chloroform as lysis buffer, instead of the lysis buffer from the kit. Olignucleotide primers were designed using NCBI Primer Blast and Clone Manager (see appendix) and validated by assessing the efficiency, melting temperature and curve using qRT-PCR and size on gel electrophoresis of the naive and enzymatically digested products. qRT-PCR amplification was performed using the following thermal profile: 95° C. for 2 min, followed by 40 cycli of 95° C. for 15 sec, 58° C. for 30 sec and 72° C. 30 sec. All reactions were carried out in triplicate and a standard curve for each primer was used.

**Q.** Which “LPS-induced mitochondrial oxidative stress (MitoSox)” value [1] does the source give for `Cc1c(C)c2c(c(C)c1O)CC[C@@](C)(C(=O)N1CCN(CCO)CC1)O2` [SUL-138, (S)-(6-hydroxy-2,5,7,8-tetramethylchroman-2-yl)(4-(2-hydroxyethyl)piperazin-1-yl)methanone] here?
**A.** precluded the LPS-induced increase in mitochondrial oxidative stress

**Q.** And the “inhibition of LPS-induced mRNA expression of IL-6” value [2]?
**A.** 68.3 ± 6.7 %

**Q.** What about the “LPS-induced increase in extracellular nitrate level” value ([3]; 10 μM pre-treatment, LPS 100 ng/ml for 24 hours) of the same molecule?
**A.** Neither SUL-138 nor SUL-150 strongly suppressed the LPS-induced increase in nitrate production

**Q.** What about the “basal production of extracellular nitrate” value ([3]; no LPS, 10 μM) of the same molecule?
**A.** Neither BN-80933, SUL-138, nor SUL-150 affected the basal production of extracellular nitrate

**Q.** And the “ICAM expression in the kidney (RNA)” value [4]?
**A.** lower than in the untreated CLP animals but the difference was not statistically significant

**Q.** What about the “IL-1β expression in the kidney (RNA)” value [4] of the same molecule?
**A.** lower than in the untreated CLP animals but the difference was not statistically significant

**Q.** What about the “IL-6 expression in the kidney (RNA)” value [4] of the same molecule?
**A.** fully prevented the rise in IL-6 expression

**Q.** What about the “TNF-α expression in the kidney (RNA)” value [4] of the same molecule?
**A.** lower than in the untreated CLP animals but the difference was not statistically significant
